Test system: NO production in BV-2 cells [NO 생성; BV-2 세포]
Assay: Nitric oxide (NO) quantification (nitrite, Griess reaction) in LPS-activated BV-2 cells
Type: cell-based
Details: 20 μM, LPS 0.2 ㎍/mL, 24 h co-treatment, nitrite by Griess at 540 nm, 1440 min

SMILES | NO (% of LPS)
CC(Nc1nc(S(C)(=O)=O)nc2c1cnn2Cc1ccccc1)c1ccccc1 (single isomer, unassigned) [화합물 23r, 1-벤질-6-(메틸설포닐)-N-(1-페닐에틸)-1H-피라졸로[3,4-d]피리미딘-4-아민] | 87±7.1 % of LPS
CC(Nc1nc([S+](C)[O-])nc2c1cnn2Cc1ccccc1)c1ccccc1 (stereo not drawn) [화합물 22i, 1-벤질-6-(메틸설파이닐)-N-(1-페닐에틸)-1H-피라졸로[3,4-d]피리미딘-4-아민] | 81±7.5 % of LPS
COc1cccc(CCn2ncc3c(NCc4ccccc4C)nc(S(C)(=O)=O)nc32)c1 [화합물 23y, N-(2-메틸벤질)-1-(3-메톡시펜에틸)-6-(메틸설포닐)-1H-피라졸로[3,4-d]피리미딘-4-아민] | 54±3.5 % of LPS

Same assay, conditions: Mus musculus, 20 μM, LPS 0.2 ㎍/mL, 24 h co-treatment, nitrite by Griess at 540 nm

SMILES | activity at 20 µM [%]
CSc1nc(N2CCN(C)CC2)c2cn[nH]c2n1 [6n, 4-(4-메틸피페라지노)-6-(메틸티오)피라졸로[3,4-d]피리미딘] | 114 ± 9

Same assay, conditions: Mus musculus, BV-2, 24 h, 20 μM, LPS 0.2 ㎍/mL, 24 h co-treatment, nitrite by Griess at 540 nm

SMILES | activity at 20 µM [%]
CSc1nc(NCc2ccccc2)c2cnn(Cc3ccccc3)c2n1 [화합물 16a, 1-벤질-4-벤질아미노-6-(메틸티오)피라졸로[3,4-d]피리미딘] | 35 ± 0.5
CSc1nc(NC(c2ccccc2)c2ccc(Cl)cc2)c2cnn(-c3ccc(C)cc3)c2n1 (stereo not drawn) [화합물 21g, N-((4-클로로페닐)(페닐)메틸)-6-(메틸티오)-1-p-톨릴-1H-피라졸로[3,4-d]피리미딘-4-아민] | 79 ± 1.8
CCCCSc1nc(SC)nc2c1cnn2Cc1ccccc1 [화합물 16m, 1-벤질-4-(뷰틸티오)-6-(메틸티오)-1H-피라졸로[3,4-d]피리미딘] | 58 ± 1.9
CSc1nc(NC(C)(C)CO)c2cnn(C(C)(C)C)c2n1 [화합물 17o, 2-(1-t-뷰틸-6-(메틸티오)-1H-피라졸로[3,4-d]피리미딘-4-일아미노)-2-메틸프로판-1-올] | 73.6 ± 2.4
COc1ccccc1CNc1nc(SC)nc2c1cnn2-c1ccc(F)cc1 [화합물 20b, N-(2-메톡시벤질)-1-(4-플루오로페닐)-6-(메틸티오)-1H-피라졸로[3,4-d]피리미딘-4-아민] | 48 ± 27.1
CSc1nc(NCc2ccccn2)c2cnn(CCNC(=O)OC(C)(C)C)c2n1 [화합물 14k, 2-(4-((피리딘-2-일)메틸아미노)-6-(메틸티오)-1H-피라졸로[3,4-d]피리미딘-1-일)에틸카바메이트] | 61 ± 0.8
CSc1nc(NCCN2CCCCC2)c2cnn(-c3ccccc3)c2n1 [화합물 15g, 1-페닐-4-[2-(피페리딘-1-일)]에틸아미노-6-(메틸티오)피라졸로[3,4-d]피리미딘] | 64 ± 7
COc1ccccc1CNc1nc(SC)nc2c1cnn2CCNC(=O)OC(C)(C)C [화합물 14c, 1-(N-t-Boc-아미노에틸)-4-(2-메톡시벤질)아미노-6-(메틸티오)피라졸로[3,4-d]피리미딘] | 54 ± 5
CSc1nc(Sc2c(Cl)cccc2Cl)c2cnn(Cc3ccccc3)c2n1 [화합물 16t, 4-(2,6-다이클로로페닐티오)-1-벤질-6-(메틸티오)-1H-피라졸로[3,4-d]피리미딘] | 43 ± 1.2
CSc1nc(NCc2ccc(C)cc2)c2cnn(-c3ccc(C)cc3)c2n1 [화합물 21f, N-(4-메틸벤질)-6-(메틸티오)-1-p-톨릴-1H-피라졸로[3,4-d]피리미딘-4-아민] | 49 ± 5.9
COc1ccccc1CCn1ncc2c(NCc3ccccc3)nc(SC)nc21 [화합물 19e, 1-(2-메톡시펜에틸)-N-벤질-6-(메틸티오)-1H-피라졸로[3,4-d]피리미딘-4-아민] | 60 ± 5.9
COc1cccc(CCn2ncc3c(NCc4ccccc4C)nc(S(C)(=O)=O)nc32)c1 [화합물 22m, N-(2-메틸벤질)-1-(3-메톡시펜에틸)-6-(메틸설포닐)-1H-피라졸로[3,4-d]피리미딘-4-아민] | 62 ± 2.8
C=CCNc1nc(SC)nc2c1cnn2CCc1cccc(OC)c1 [화합물 18i, 1-(3-메톡시펜에틸)-N-알릴-6-(메틸티오)-1H-피라졸로[3,4-d]피리미딘-4-아민] | 78 ± 4.4
C=CCSc1nc(SC)nc2c1cnn2-c1ccccc1 [화합물 25b, 1-페닐-4-알릴티오-6-(메틸티오)피라졸로[3,4-d]피리미딘] | 89 ± 6
CC(Nc1nc(S(C)(=O)=O)nc2c1cnn2Cc1ccccc1)c1ccccc1 (stereo not drawn) [화합물 23p, 1-벤질-6-(메틸설포닐)-N-(1-페닐에틸)-1H-피라졸로[3,4-d]피리미딘-4-아민] | 40 ± 4.9
CSc1nc(NCCO)c2cnn(C)c2n1 [12e, 1-메틸-4-(1-하이드록시에틸)아미노-6-(메틸티오)피라졸로[3,4-d]피리미딘] | 91 ± 2

SMILES | activity at 20 µM [%]
COc1cccc(CCn2ncc3c(NCc4ccccc4)nc(SC)nc32)c1 [화합물 18h, 1-(3-메톡시펜에틸)-N-벤질-6-(메틸티오)-1H-피라졸로[3,4-d]피리미딘-4-아민] | 56 ± 3.1
COc1ccccc1CCn1ncc2c(NCc3ccccc3OC)nc(SC)nc21 [화합물 19i, N-(2-메톡시벤질)-1-(2-메톡시펜에틸)-6-(메틸티오)-1H-피라졸로[3,4-d]피리미딘-4-아민] | 23.1 ± 0.5
CSc1nc(NCc2ccc(F)cc2)c2c(-c3ccccc3)nn(-c3ccccc3)c2n1 [화합물 31c, 1-페닐-3-페닐-4-(4-플루오로벤질)아미노-6-(메틸티오)피라졸로[3,4-d]피리미딘] | 100 ± 4
C=CCn1ncc2c(NC(C)c3ccccc3)nc(SC)nc21 (stereo not drawn) [화합물 13i, 1-알릴-6-(메틸티오)-N-(1-페닐에틸)-1H-피라졸로[3,4-d]피리미딘-4-아민] | 9.5 ± 3.8
CC(Nc1nc(S(C)(=O)=O)nc2c1cnn2-c1ccccc1)C1CCCCC1 (stereo not drawn) [화합물 23f, N-(1-사이클로헥실에틸)-6-(메틸설포닐)-1-페닐-1H-피라졸로[3,4-d]피리미딘-4-아민] | 23 ± 0.6
CSc1nc(NCc2ccccn2)c2cn[nH]c2n1 [6y, 6-(메틸티오)-N-((피리딘-2-일)메틸)-1H-피라졸로[3,4-d]피리미딘-4-아민] | 90 ± 2.9
CCCCNc1nc(SC)nc2c1cnn2-c1ccccc1 [화합물 15t, 1-페닐-4-n-뷰틸아미노-6-(메틸티오)피라졸로[3,4-d]피리미딘] | 48 ± 8
CSc1nc(Cl)c2c(-c3ccccc3)nn(Cc3ccccc3)c2n1 [화합물 30b, 1-벤질-3-페닐-4-클로로-6-(메틸티오)피라졸로[3,4-d]피리미딘] | 31 ± 19
C=CCn1ncc2c(NCc3cccc(OC)c3)nc(SC)nc21 [화합물 13j, N-(3-메톡시벤질)-1-알릴-6-(메틸티오)-1H-피라졸로[3,4-d]피리미딘-4-아민] | 87 ± 0.2
CSc1nc(NCc2ccc(F)cc2)c2cnn(CCO)c2n1 [화합물 27b, 1-(1-하이드록시에틸)-4-(4-플루오로벤질)벤질아미노-6-(메틸티오)피라졸로[3,4-d]피리미딘] | 73 ± 10
CSc1nc(NCc2ccccc2Cl)c2cnn(-c3ccc(C)cc3)c2n1 [화합물 21a, N-(2-클로로벤질)-6-(메틸티오)-1-p-톨릴-1H-피라졸로[3,4-d]피리미딘-4-아민] | 37 ± 10.7
CSc1nc(Cl)c2cnn(C(C)(C)C)c2n1 [5g, 1-t-뷰틸-4-클로로-6-(메틸티오)피라졸로[3,4-d]피리미딘] | 15 ± 18
CSc1nc(Sc2ccc(C)cc2)c2cnn(-c3ccccc3)c2n1 [화합물 15y, 4-(p-톨릴티오)-6-(메틸티오)-1-페닐-1H-피라졸로[3,4-d]피리미딘] | 85 ± 2.3
COc1cccc(CCn2ncc3c(NCc4ccccc4Cl)nc(S(C)(=O)=O)nc32)c1 [화합물 23w, N-(2-클로로벤질)-1-(3-메톡시펜에틸)-6-(메틸설포닐)-1H-피라졸로[3,4-d]피리미딘-4-아민] | 54 ± 2.3
Cc1ccc(C(C)Nc2nc(S(C)(=O)=O)nc3c2cnn3Cc2ccccc2)cc1 (stereo not drawn) [화합물 23u, 1-벤질-6-(메틸설포닐)-N-(1-p-톨릴에틸)-1H-피라졸로[3,4-d]피리미딘-4-아민] | 120 ± 3.1
CSc1nc(NC(C)(C)CO)c2cnn(-c3ccccc3)c2n1 [화합물 15k, 1-페닐-4-[(1-하이드록시-2,2-다이메틸)에틸]아미노-6-(메틸티오)피라졸로[3,4-d]피리미딘] | 70 ± 3

Same assay, conditions: Mus musculus, BV-2, 24 h, 30 μM, LPS 0.2 ㎍/mL, 24 h co-treatment, nitrite by Griess at 540 nm

SMILES | activity at 30 µM [%]
CSc1nc(NCc2ccccc2)c2c(I)n[nH]c2n1 [11a, 3-아이오도-4-벤질아미노-6-(메틸티오)피라졸로[3,4-d]피리미딘] | 27 ± 11
CSc1nc(NCCO)c2c(I)n[nH]c2n1 [11b, 3-아이오도-4-(1-하이드록시에틸)아미노-6-(메틸티오)피라졸로[3,4-d]피리미딘] | 82 ± 7
COc1nc(SC)nc2[nH]ncc12 [10a, 4-메톡시-6-(메틸티오)피라졸로[3,4-d]피리미딘] | 91 ± 2.4
